Measurements: ChEMBL document CHEMBL4414630, “Cyclobutastellettolides A and B, C19 Norterpenoids from a Stelletta sp. Marine Sponge” (J Nat Prod, 2019)

Tests used:
Peritoneal macrophage [1] = assay: Induction of ROS generation in BALB/c mouse peritoneal macrophages at 10 uM incubated for 1 hr by H2DCF-DA staining based fluorescence analysis relative to control; assay type: functional
DLD-1 = assay: Cytotoxicity against human DLD1 cells assessed as inhibition of cell viability incubated for 24 hrs by MTS assay; assay type: cell-based; conditions: DLD-1, 24 h
HT-29 = assay: Cytotoxicity against human HT-29 cells assessed as inhibition of cell viability incubated for 24 hrs by MTS assay; assay type: cell-based; conditions: HT-29, 24 h
N2a = assay: Cytotoxicity against mouse Neuro2a cells assessed as inhibition of cell viability incubated for 24 hrs by MTT assay; assay type: cell-based
Peritoneal macrophage [2] = assay: Induction of ROS generation in BALB/c mouse peritoneal macrophages at 1 uM incubated for 1 hr by H2DCF-DA staining based fluorescence analysis relative to control; assay type: functional

| Compound | Activity (Peritoneal macrophage [1]) [%] | IC50 (DLD-1) [µM] | IC50 (HT-29) [µM] | IC50 (N2a) [µM] | Activity (Peritoneal macrophage [2]) [%] |
| --- | --- | --- | --- | --- | --- |
| CC(=O)O[C@H]1CC[C@@]2(C)[C@@H](CC[C@]3(C)C(=O)[C@@]4(C)OC(=O)C[C@@]234)C1(C)C | 90 | > 40 | > 40 | > 40 | 73 |
| CC1(C)C(=O)CC[C@@]2(C)[C@H]1CC[C@]1(C)C(=O)[C@@]3(C)OC(=O)C[C@@]213 | 93 | > 40 | > 40 | > 40 | 55 |
